Data taken from patent US11046672B2, “Indolinones compounds and their use in the treatment of fibrotic diseases” (RESPIVERT LIMITED, priority 2015, dated 2021).
Where two headings read alike, the source gives them in different places.

What was measured:
[1] = Pharmacokinetic measurements in mice (intravenous and intra-nasal dosing); format: in vivo; details: mouse; for concentration at 6 h / concentration at 0.1 h / concentration at 1.5 h / concentration at 24 h: lung, read-out: lung concentration (nM) at time (h); for Kp at 6 h / Kp at 0.1 h / Kp at 1.5 h: lung/plasma
[2] = Pharmacokinetic measurements in rats (intravenous and intra-tracheal dosing); format: in vivo; details: rat; for concentration at 6 h / concentration at 0.1 h / concentration at 1.5 h / concentration at 24 h: lung, read-out: lung concentration (nM) at time (h); for Kp at 6 h / Kp at 0.1 h / Kp at 1.5 h / Kp at 24 h: lung/plasma
[3] = PAMPA permeability assay; format: in vitro ADME; details: PAMPA, donor and acceptor compartments
[4] = molecular target: T1, PDGFRβ (Homo sapiens (Human), UniProt P09619); details: read-out: Ki PDGFRβ; mean, n = 2 unless otherwise indicated
[5] = tested on: MRC5 cells; test: Cell viability assay in MRC5 cells (MTT)
[6] = molecular target: T1, PDGFRβ; test: Duration of action (washout) against PDGF-BB induced phosphorylation of PDGFRβ in human fetal lung fibroblast cells; format: cell-based; details: MRC-5 cells, after wash-out, rhuPDGF-BB; experiments in Groups 1-4
[7] = molecular target: T1, PDGFRβ; test: PDGF-BB induced phosphorylation of PDGFRβ in fibroblasts (MRC5 cells, HTRF); format: cell-based; details: MRC5 cells; n = 1 unless otherwise indicated; read-out: PDGFBB-induced PDGFRβ phosphorylation in MRC5 cells (IC50)

T1 sequence (P09619 33-1106): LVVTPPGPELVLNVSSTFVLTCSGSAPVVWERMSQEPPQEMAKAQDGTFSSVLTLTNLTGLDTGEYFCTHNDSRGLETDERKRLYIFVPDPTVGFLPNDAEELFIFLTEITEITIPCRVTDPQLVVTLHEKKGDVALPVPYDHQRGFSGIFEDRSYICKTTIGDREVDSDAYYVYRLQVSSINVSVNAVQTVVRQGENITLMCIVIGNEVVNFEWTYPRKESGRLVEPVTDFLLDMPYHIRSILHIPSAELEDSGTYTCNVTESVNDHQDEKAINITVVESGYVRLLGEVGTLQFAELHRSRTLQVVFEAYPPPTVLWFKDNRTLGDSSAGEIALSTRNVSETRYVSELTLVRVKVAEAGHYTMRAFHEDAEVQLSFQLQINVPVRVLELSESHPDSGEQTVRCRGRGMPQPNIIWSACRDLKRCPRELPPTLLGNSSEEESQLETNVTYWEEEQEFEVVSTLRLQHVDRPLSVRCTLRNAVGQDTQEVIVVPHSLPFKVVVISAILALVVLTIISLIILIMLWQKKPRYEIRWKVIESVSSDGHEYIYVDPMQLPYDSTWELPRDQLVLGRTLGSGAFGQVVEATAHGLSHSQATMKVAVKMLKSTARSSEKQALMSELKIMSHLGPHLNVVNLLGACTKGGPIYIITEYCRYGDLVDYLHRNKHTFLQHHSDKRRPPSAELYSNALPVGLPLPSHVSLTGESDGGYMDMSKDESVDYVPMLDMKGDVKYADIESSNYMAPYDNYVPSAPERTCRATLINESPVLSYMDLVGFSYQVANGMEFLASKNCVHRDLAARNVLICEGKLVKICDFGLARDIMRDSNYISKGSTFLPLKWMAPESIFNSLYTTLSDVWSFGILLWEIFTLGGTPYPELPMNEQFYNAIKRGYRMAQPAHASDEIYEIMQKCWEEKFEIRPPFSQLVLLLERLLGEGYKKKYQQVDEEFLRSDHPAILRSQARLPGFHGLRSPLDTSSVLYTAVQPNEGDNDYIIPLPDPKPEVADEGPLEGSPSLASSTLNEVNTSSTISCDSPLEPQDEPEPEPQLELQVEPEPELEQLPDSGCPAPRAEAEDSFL

`COC(=O)c1cc2c(cc1C)/C(=C(/Nc1ccc(C(=O)NOCCN(C)C)c(C)c1)c1ccccc1)C(=O)N2` [Example 5, (Z)-Methyl 3-(((4-((2-(dimethylamino)ethoxy)carbamoyl)-3-methylphenyl)amino)(phenyl)methylene)-5-methyl-2-oxoindoline-6-carboxylate] gave a concentration at 6 h ([1]; male, C57BL/6J, iv, 0.2 mg/kg, i.v. dosing, 6 h, mean) of 306 nM, a concentration at 0.1 h ([1]; male, C57BL/6J, iv, i.v. dosing, 0.1 h, mean) of 868 nM and a concentration at 1.5 h ([1]; male, C57BL/6J, iv, i.v. dosing, 1.5 h, mean) of 416 nM. For the same compound, the concentration at 24 h ([1]; male, C57BL/6J, iv, i.v. dosing, 24 h, mean) was 20 nM, the concentration at 0.1 h ([1]; male, C57BL/6J, other: intra-nasal, i.n. dosing, 0.1 h, mean) was 3510 nM and the concentration at 1.5 h ([1]; male, C57BL/6J, other: intra-nasal, i.n. dosing, 1.5 h, mean) was 1730 nM. It also gave a concentration at 6 h ([1]; male, C57BL/6J, other: intra-nasal, i.n. dosing, 6 h, mean) of 1320 nM, a concentration at 24 h ([1]; male, C57BL/6J, other: intra-nasal, i.n. dosing, 24 h, mean) of 363 nM and a Kp at 6 h ([1]; male, C57BL/6J, iv, 0.2 mg/kg, i.v. dosing, 6 h, read-out: lung/plasma ratio at time(h)) of 152. For the same compound, the Kp at 0.1 h ([1]; male, C57BL/6J, iv, i.v. dosing, 0.1 h, read-out: lung/plasma ratio at time(h)) was 13, the Kp at 1.5 h ([1]; male, C57BL/6J, iv, i.v. dosing, 1.5 h, read-out: lung/plasma ratio at time(h)) was 39 and the Kp at 0.1 h ([1]; male, C57BL/6J, other: intra-nasal, i.n. dosing, 0.1 h, read-out: lung/plasma conc ratio at time(h)) was 209. It also gave a Kp at 1.5 h ([1]; male, C57BL/6J, other: intra-nasal, i.n. dosing, 1.5 h, read-out: lung/plasma conc ratio at time(h)) of 688, a Kp at 6 h ([1]; male, C57BL/6J, other: intra-nasal, i.n. dosing, 6 h, read-out: lung/plasma conc ratio at time(h)) of 1130 and a clearance ([1]; male, C57BL/6J, whole blood, iv) of 111 mL/min/kg. For the same compound, the MRT ([1]; male, C57BL/6J, whole blood, iv, i.v. dosing, mean) was 3.2 h, the Vd ([1]; male, C57BL/6J, whole blood, iv, i.v. dosing, mean, read-out: Vss) was 21 L/kg and the half-life ([1]; male, C57BL/6J, whole blood, iv, i.v. dosing, mean, read-out: t½ (converted)) was 156 min. The “Lung conc i.n./i.v. Ratio at time (h)” value ([1]; 0.1 h) was 4.0, the “Lung conc i.n./i.v. Ratio at time (h)” value ([1]; 1.5 h) was 4.2 and the “Lung conc i.n./i.v. Ratio at time (h)” value ([1]; 6 h) was 4.3. For the same compound, the “Lung conc i.n./i.v. Ratio at time (h)” value ([1]; 24 h) was 18.2, the “BAV (%)” value ([1]; i.n. dosing (i.n. dose 1 nintedanib, 0.2 examples), mean) was 14% and the “BAL % administered dose at time (h)” value ([1]; i.n. dosing, 0.1 h) was 1%. For the same compound, the “BAL % administered dose at time (h)” value ([1]; i.n. dosing, 1.5 h) was 0.1%, the “BAL % administered dose at time (h)” value ([1]; i.n. dosing, 6 h) was 0.3% and the “BAL % administered dose at time (h)” value ([1]; i.n. dosing, 24 h) was 0.1%. For the same compound, the “BAL % administered dose at time (h)” value ([1]; i.v. dosing, 0.1 h) was 0.07%, the “BAL % administered dose at time (h)” value ([1]; i.v. dosing, 1.5 h) was 0.02% and the “BAL % administered dose at time (h)” value ([1]; i.v. dosing, 6 h) was 0.01%. For the same compound, the “BAL % administered dose at time (h)” value ([1]; i.v. dosing, 24 h) was 0.02%, the “BAV (%)” value ([1]; oral dosing (oral dose 60 mg/kg nintedanib, 10 mg/kg examples), mean) was 13% and the concentration at 6 h ([2]; male, CD, iv, 0.1 mg/kg, i.v. dosing, 6 h) was 92 nM. It also gave a concentration at 0.1 h ([2]; male, CD, iv, i.v. dosing, 0.1 h) of 475 nM, a concentration at 1.5 h ([2]; male, CD, iv, i.v. dosing, 1.5 h) of 251 nM and a concentration at 24 h ([2]; male, CD, iv, i.v. dosing, 24 h) of 52 nM. The concentration at 0.1 h ([2]; male, CD, other: intra-tracheal, i.t. dosing, 0.1 h) was 3590 nM, the concentration at 1.5 h ([2]; male, CD, other: intra-tracheal, i.t. dosing, 1.5 h) was 1710 nM and the concentration at 6 h ([2]; male, CD, other: intra-tracheal, i.t. dosing, 6 h) was 629 nM. It also gave a concentration at 24 h ([2]; male, CD, other: intra-tracheal, i.t. dosing, 24 h) of 747 nM, a Kp at 6 h ([2]; male, CD, iv, 0.1 mg/kg, i.v. dosing, 6 h, read-out: lung/plasma ratio at time(h)) of 26 and a Kp at 0.1 h ([2]; male, CD, iv, i.v. dosing, 0.1 h, read-out: lung/plasma ratio at time(h)) of 24. The Kp at 1.5 h ([2]; male, CD, iv, i.v. dosing, 1.5 h, read-out: lung/plasma ratio at time(h)) was 36, the Kp at 24 h ([2]; male, CD, iv, i.v. dosing, 24 h, read-out: lung/plasma ratio at time(h)) was 98 and the Kp at 0.1 h ([2]; male, CD, other: intra-tracheal, i.t. dosing, 0.1 h, read-out: lung/plasma conc ratio at time(h)) was 74. It also gave a Kp at 1.5 h ([2]; male, CD, other: intra-tracheal, i.t. dosing, 1.5 h, read-out: lung/plasma conc ratio at time(h)) of 362, a Kp at 6 h ([2]; male, CD, other: intra-tracheal, i.t. dosing, 6 h, read-out: lung/plasma conc ratio at time(h)) of 461 and a Kp at 24 h ([2]; male, CD, other: intra-tracheal, i.t. dosing, 24 h, read-out: lung/plasma conc ratio at time(h)) of 1520. It also gave an MRT ([2]; male, CD, plasma, iv, i.v. dosing) of 8 h, a clearance ([2]; male, CD, plasma, iv, i.v. dosing (i.v. dose 0.1-0.5 per compound)) of 48 mL/min/kg and a Vd ([2]; male, CD, plasma, iv, i.v. dosing, read-out: Vss) of 23 L/kg. The half-life ([2]; male, CD, plasma, iv, i.v. dosing, read-out: t½ (converted)) was 456 min, the “Lung conc i.t./i.v. Ratio at time (h)” value ([2]; 0.1 h) was 7.6 and the “Lung conc i.t./i.v. Ratio at time (h)” value ([2]; 1.5 h) was 6.8. For the same compound, the “Lung conc i.t./i.v. Ratio at time (h)” value ([2]; 6 h) was 6.8, the “Lung conc i.t./i.v. Ratio at time (h)” value ([2]; 24 h) was 14.4 and the “i.t. BAV (%)” value ([2]; i.t. dosing (i.t. dose 0.1-0.5 per compound)) was 70%. For the same compound, the “BAL % administered dose at time (h)” value ([2]; i.t. dosing, 0.1 h) was 3.1%, the “BAL % administered dose at time (h)” value ([2]; i.t. dosing, 1.5 h) was 0.6% and the “BAL % administered dose at time (h)” value ([2]; i.t. dosing, 6 h) was 0.3%. The “BAL % administered dose at time (h)” value ([2]; i.t. dosing, 24 h) was 0.2%, the “BAL % administered dose at time (h)” value ([2]; i.v. dosing, 0.1 h) was 0.04% and the “BAL % administered dose at time (h)” value ([2]; i.v. dosing, 1.5 h) was 0.01%. The “BAL % administered dose at time (h)” value ([2]; i.v. dosing, 6 h) was 0.01%, the “BAL % administered dose at time (h)” value ([2]; i.v. dosing, 24 h) was 0.01% and the “Oral BAV (%)” value ([2]; oral dose 3 mg/kg) was 4%. For the same compound, the “% Recovery” value [3] was 60.9%, the recovery at 5 hr, 10 μM ([3]; pH 7, PAMPA) was 50.4% and the Ki [4] was 7.13 nM. The “Cell viability at 100 nM (%)” value ([5]; 100 nM) was 100.6%, the “Cell viability at 300 nM (%)” value ([5]; 300 nM) was 92.5% and the “Cell viability at 1000 nM (%)” value ([5]; 1000 nM) was 71.5%. The “% phos: percentage phosphorylation after wash-out relative to maximal phosphorylation (100%)” value [6] was 37.3% and the IC50 [7] was 7.74 nM.
